Measurements as given in ChEMBL document CHEMBL4665541, “Search for new therapeutic options for the uncommon pathogen Mycobacterium chimaera: an open drug discovery approach” (Lancet Microbe, 2021).

Key:
Assay type in all cases: functional, organism-based
Design in all cases: conc 20 uM
[1] = system: Mycobacterium intracellulare subsp. chimaera; assay: (§1) Inhibition of mycobacterial growth using the resazurin microtitre cell viability assay (REMA), compounds at final concentration of 20 µM (2% v/v DMSO). Hits were classed as compounds that inhibited bacterial growth by 70% or more compared to drug-free controls.; conditions: NCTC13781
[2] = system: Mycobacterium tuberculosis; assay: as §1; conditions: H37Rv
[3] = system: Mycobacteroides abscessus; assay: as §1; conditions: ATCC19977

Q: With MMV688554 as the substance, how does the Survival [1] read?
A: 102%

Q: And the Survival [2]?
A: 76%

Q: And the Survival [3]?
A: 115%

Q: For MMV688555, which Survival [1] is on record?
A: 92.5%

Q: What about the Survival [2] of the same substance?
A: 46.8%

Q: What about the Survival [3] of the same substance?
A: 108%

Q: Which Survival [1] does the source give for MMV688557 here?
A: 101%

Q: What about the Survival [2] of the same substance?
A: 95.7%

Q: What about the Survival [3] of the same substance?
A: 101%

Q: How did the Survival [1] turn out when MMV688703 was run?
A: 103%

Q: What about the Survival [2] of the same substance?
A: 102%

Q: And the Survival [3]?
A: 108%

Q: Which results are given for MMV688704?
A: Survival [1]: 98.7%; Survival [2]: 92.8%; Survival [3]: 106%

Q: What does the source list for MMV688754?
A: Survival [1]: 103%; Survival [2]: 92.9%; Survival [3]: 109%

Q: How did the Survival [1] turn out when MMV688755 was run?
A: 107%

Q: And the Survival [2]?
A: 7.68%

Q: And the Survival [3]?
A: 111%

Q: What does the source list for MMV688756?
A: Survival [1]: 2.59%; Survival [2]: 13.4%; Survival [3]: 50%

Q: How did the Survival [1] turn out when MMV688761 was run?
A: 108%

Q: What about the Survival [2] of the same substance?
A: 108%

Q: And the Survival [3]?
A: 113%

Q: For MMV688762, which Survival [1] is on record?
A: 96.2%

Q: What about the Survival [2] of the same substance?
A: 89%

Q: And the Survival [3]?
A: 121%

Q: For MMV688763, which Survival [1] is on record?
A: 99.1%

Q: What about the Survival [2] of the same substance?
A: 21.8%

Q: What about the Survival [3] of the same substance?
A: 122%

Q: How did the Survival [1] turn out when MMV688766 was run?
A: 104%

Q: What about the Survival [2] of the same substance?
A: 88.4%

Q: And the Survival [3]?
A: 111%

Q: How did the Survival [1] turn out when MMV688768 was run?
A: 93.9%

Q: What about the Survival [2] of the same substance?
A: 87%

Q: And the Survival [3]?
A: 109%

Q: What does the source list for MMV688771?
A: Survival [1]: 91.7%; Survival [2]: 91.4%; Survival [3]: 98.2%

Q: With MMV688773 as the substance, how does the Survival [1] read?
A: 94.7%

Q: What about the Survival [2] of the same substance?
A: 82.8%

Q: What about the Survival [3] of the same substance?
A: 122%

Q: What does the source list for MMV688774?
A: Survival [1]: 79.3%; Survival [2]: 100%; Survival [3]: 107%

Q: For MMV688775, which Survival [1] is on record?
A: 1.46%

Q: And the Survival [2]?
A: 4.71%

Q: What about the Survival [3] of the same substance?
A: 15.1%

Q: How did the Survival [1] turn out when MMV688776 was run?
A: 100%

Q: And the Survival [2]?
A: 127%

Q: What about the Survival [3] of the same substance?
A: 115%

Q: Which Survival [1] does the source give for MMV688793 here?
A: 101%

Q: And the Survival [2]?
A: 89.7%

Q: And the Survival [3]?
A: 114%

Q: Which Survival [1] does the source give for MMV688795 here?
A: 105%

Q: And the Survival [2]?
A: 77.7%

Q: And the Survival [3]?
A: 105%

Q: MMV688796 was tested. Which Survival [1] did it give?
A: 93.4%

Q: And the Survival [2]?
A: 99.3%

Q: And the Survival [3]?
A: 103%

Q: Which Survival [1] does the source give for MMV688797 here?
A: 96.5%

Q: What about the Survival [2] of the same substance?
A: 80.5%

Q: And the Survival [3]?
A: 113%

Q: MMV688798 was tested. Which Survival [1] did it give?
A: 95.2%

Q: And the Survival [2]?
A: 102%

Q: And the Survival [3]?
A: 103%

Q: How did the Survival [1] turn out when MMV688844 was run?
A: 4.25%

Q: What about the Survival [2] of the same substance?
A: 15.4%

Q: And the Survival [3]?
A: 11.7%

Q: What does the source list for MMV688845?
A: Survival [1]: 1.95%; Survival [2]: 6.47%; Survival [3]: 24.1%

Q: Which Survival [1] does the source give for MMV688846 here?
A: 112%

Q: What about the Survival [2] of the same substance?
A: 69.2%

Q: And the Survival [3]?
A: 20.9%

Q: What does the source list for MMV688852?
A: Survival [1]: 103%; Survival [2]: 107%; Survival [3]: 115%

Q: For MMV688853, which Survival [1] is on record?
A: 102%

Q: What about the Survival [2] of the same substance?
A: 94.5%

Q: And the Survival [3]?
A: 111%

Q: With MMV688854 as the substance, how does the Survival [1] read?
A: 111%

Q: What about the Survival [2] of the same substance?
A: 111%

Q: What about the Survival [3] of the same substance?
A: 114%

Q: Which results are given for MMV688888?
A: Survival [1]: 37.8%; Survival [2]: 23.3%; Survival [3]: 95.5%

Q: MMV688889 was tested. Which Survival [1] did it give?
A: 89.4%

Q: What about the Survival [2] of the same substance?
A: 58.9%

Q: And the Survival [3]?
A: 105%

Q: For MMV688891, which Survival [1] is on record?
A: 113%

Q: And the Survival [2]?
A: 101%

Q: What about the Survival [3] of the same substance?
A: 109%

Q: What does the source list for MMV688921?
A: Survival [1]: 109%; Survival [2]: 110%; Survival [3]: 110%

Q: MMV688934 was tested. Which Survival [1] did it give?
A: 104%

Q: What about the Survival [2] of the same substance?
A: 101%

Q: And the Survival [3]?
A: 112%

Q: With MMV688936 as the substance, how does the Survival [1] read?
A: 98.9%

Q: What about the Survival [2] of the same substance?
A: 82.6%

Q: What about the Survival [3] of the same substance?
A: 106%

Q: What does the source list for MMV688938?
A: Survival [1]: 88.3%; Survival [2]: 119%; Survival [3]: 118%

Q: For MMV688939, which Survival [1] is on record?
A: 95.4%

Q: What about the Survival [2] of the same substance?
A: 48.9%

Q: What about the Survival [3] of the same substance?
A: 97.6%

Q: Which Survival [1] does the source give for MMV688941 here?
A: 104%

Q: And the Survival [2]?
A: 69.8%

Q: What about the Survival [3] of the same substance?
A: 120%

Q: What does the source list for MMV688942?
A: Survival [1]: 98.6%; Survival [2]: 85.1%; Survival [3]: 112%

Q: For MMV688943, which Survival [1] is on record?
A: 100%

Q: What about the Survival [2] of the same substance?
A: 89.7%

Q: And the Survival [3]?
A: 112%

Q: Which Survival [1] does the source give for MMV688955 here?
A: 94.2%

Q: What about the Survival [2] of the same substance?
A: 103%

Q: What about the Survival [3] of the same substance?
A: 89.9%

Q: For MMV688958, which Survival [1] is on record?
A: 97.7%

Q: What about the Survival [2] of the same substance?
A: 91.1%

Q: And the Survival [3]?
A: 109%

Q: Which results are given for MMV688978?
A: Survival [1]: 105%; Survival [2]: 5.27%; Survival [3]: 106%

Q: For MMV688980, which Survival [1] is on record?
A: 92%

Q: And the Survival [2]?
A: 99.6%

Q: What about the Survival [3] of the same substance?
A: 87.1%

Q: Which results are given for MMV688990?
A: Survival [1]: 102%; Survival [2]: 98.5%; Survival [3]: 103%

Q: With MMV688991 as the substance, how does the Survival [1] read?
A: 90.1%

Q: What about the Survival [2] of the same substance?
A: 82.1%

Q: What about the Survival [3] of the same substance?
A: 98.3%

Q: Which results are given for MMV688994?
A: Survival [1]: 80%; Survival [2]: 13.7%; Survival [3]: 101%

Q: Which Survival [1] does the source give for MMV689000 here?
A: 101%

Q: And the Survival [2]?
A: 89.8%

Q: And the Survival [3]?
A: 115%

Q: For MMV689028, which Survival [1] is on record?
A: 127%

Q: What about the Survival [2] of the same substance?
A: 121%

Q: And the Survival [3]?
A: 121%

Q: Which Survival [1] does the source give for MMV689029 here?
A: 93.5%

Q: And the Survival [2]?
A: 86.9%

Q: What about the Survival [3] of the same substance?
A: 119%

Q: What does the source list for MMV689060?
A: Survival [1]: 109%; Survival [2]: 104%; Survival [3]: 119%

Q: With MMV689061 as the substance, how does the Survival [1] read?
A: 127%

Q: And the Survival [2]?
A: 122%

Q: And the Survival [3]?
A: 118%

Q: Which Survival [1] does the source give for MMV689243 here?
A: 110%

Q: And the Survival [2]?
A: 82.6%

Q: What about the Survival [3] of the same substance?
A: 113%

Q: Which Survival [1] does the source give for MMV689244 here?
A: 107%

Q: What about the Survival [2] of the same substance?
A: 90.1%

Q: And the Survival [3]?
A: 115%

Q: For MMV689255, which Survival [1] is on record?
A: 109%

Q: What about the Survival [2] of the same substance?
A: 89.2%

Q: What about the Survival [3] of the same substance?
A: 124%

Q: How did the Survival [1] turn out when MMV689437 was run?
A: 106%

Q: What about the Survival [2] of the same substance?
A: 104%

Q: And the Survival [3]?
A: 99%

Q: For MMV689480, which Survival [1] is on record?
A: 95.5%

Q: What about the Survival [2] of the same substance?
A: 98.5%

Q: What about the Survival [3] of the same substance?
A: 112%

Q: Which results are given for MMV689709?
A: Survival [1]: 91.7%; Survival [2]: 97.3%; Survival [3]: 114%

Q: How did the Survival [1] turn out when MMV689758 was run?
A: 1.81%

Q: And the Survival [2]?
A: 5.64%

Q: What about the Survival [3] of the same substance?
A: 19.8%

Q: What does the source list for MMV690027?
A: Survival [1]: 104%; Survival [2]: 101%; Survival [3]: 111%

Q: With MMV690028 as the substance, how does the Survival [1] read?
A: 92.3%

Q: And the Survival [2]?
A: 95.8%

Q: And the Survival [3]?
A: 120%

Q: MMV690102 was tested. Which Survival [1] did it give?
A: 111%

Q: And the Survival [2]?
A: 106%

Q: What about the Survival [3] of the same substance?
A: 113%

Q: What does the source list for MMV690103?
A: Survival [1]: 110%; Survival [2]: 105%; Survival [3]: 117%

Q: Which results are given for MMV1019989?
A: Survival [1]: 107%; Survival [2]: 105%; Survival [3]: 99%

Q: How did the Survival [1] turn out when MMV1028806 was run?
A: 100%

Q: And the Survival [2]?
A: 26.7%

Q: And the Survival [3]?
A: 116%

Q: Which Survival [1] does the source give for MMV1029203 here?
A: 125%

Q: What about the Survival [2] of the same substance?
A: 128%

Q: What about the Survival [3] of the same substance?
A: 116%

Q: With MMV1030799 as the substance, how does the Survival [1] read?
A: 99.7%

Q: And the Survival [2]?
A: 18.8%

Q: And the Survival [3]?
A: 121%

Q: What does the source list for MMV1037162?
A: Survival [1]: 107%; Survival [2]: 107%; Survival [3]: 97.5%

Q: What does the source list for MMV1088520?
A: Survival [1]: 98.2%; Survival [2]: 102%; Survival [3]: 110%

Q: How did the Survival [1] turn out when MMV1110498 was run?
A: 102%

Q: And the Survival [2]?
A: 97.9%

Q: What about the Survival [3] of the same substance?
A: 111%

Q: How did the Survival [1] turn out when MMV1198433 was run?
A: 112%

Q: And the Survival [2]?
A: 105%

Q: What about the Survival [3] of the same substance?
A: 98.6%

Q: With MMV1236379 as the substance, how does the Survival [1] read?
A: 98.4%

Q: And the Survival [2]?
A: 96%

Q: And the Survival [3]?
A: 110%
